# Data reported in ChEMBL document CHEMBL5728138, “Triazolo-pyrimidine compounds and uses thereof” (2020).
# Legend:
# [1] = molecular target: Adenosine receptor A2a (Homo sapiens, UniProt P29274); experiment: Binding Affinities to Different Adenosine Receptors: The compounds at different concentrations were incubate with hA1 membrane (from PerkinElmer) and [3H]-8-Cyclopentyl-1,3-dipropylxanthine (DPCPX) for 50 min at 25° C., meanwhile 100 μL 0.5% PEI solution was added into […]-96 GF/B filter plate for 60 min at 4° C., then […]-96 GF/B filter plate was washed twice with 50 ml wash buffer, the membrane mix was transferred into […]-96 GF/B filter plate, and the filter plate was washed 4 times before incubated at 55° C. for 10 min. At last, […] ULTIMA GOLD was added into each well, and CPM was read by TopCount.The compounds at different concentrations were incubate with hA2a membrane (from PerkinElmer) and [3H]-CGS21680 for 90 min at 25° C., meanwhile 100 μL 0.5% PEI solution was added into […]-96 GF/B filter plate for 60 min at 4° C., then […]-96 GF/B filter plate was washed twice with 50 ml wash buffer, the membrane mix was transferred into […]-96 GF/B filter plate, and the filter plate was washed 4 times before incubated at 55° C. for 10 min. At last, […] ULTIMA GOLD was added into each well, and CPM was read by TopCount.The compounds at different concentrations were incubate with hA2b membrane (from PerkinElmer) and [3H]-DPCPX for 60 min at 27° C., and the binding reactions were stopped by rapid filtration through 0.5% BSA coated […]-96 GF/C plates using cell harvester. […]
# [2] = molecular target: T1, Adenosine receptor A1 (Homo sapiens, UniProt P30542); experiment: (§1) FLIPR and cAMP Inhibition Assay: hADORA1/CHO (hA1 expressing) cells (Genscript) were plated at 1×10^4 cells/well into 384-well polystyrene plates one day before starting the experiment. On the day of experiment, the supernatant was discard and replaced with 40 µL of dye (FLIPR calcium 5 Assay Kit) per well and the plates were incubated for 60 mins at 37° C. plus 5% CO2. Then testing compounds were added at different concentrations for FLIPR™ inhibition assay. After a 400 s incubation with compound, […] was added into the cells, and the signal was captured by FLIPR.hA2a/CHO, hA2b/CHO and mA2a/CHO (Genscript) were plated at 5×10^3 cells/well into 384-well polystyrene plates at the day of experiment. Compounds were pre-incubated with cells for 30 min at 37° C., 5% CO2. Then […] was added to the cells and incubated for 30 min at 37° C., 5% CO2. Detection reagent (CISBIO) was added and the plates were incubated for 60 min at room temperature. The signal was captured by Envision.
# T1 sequence (P30542 whole entry): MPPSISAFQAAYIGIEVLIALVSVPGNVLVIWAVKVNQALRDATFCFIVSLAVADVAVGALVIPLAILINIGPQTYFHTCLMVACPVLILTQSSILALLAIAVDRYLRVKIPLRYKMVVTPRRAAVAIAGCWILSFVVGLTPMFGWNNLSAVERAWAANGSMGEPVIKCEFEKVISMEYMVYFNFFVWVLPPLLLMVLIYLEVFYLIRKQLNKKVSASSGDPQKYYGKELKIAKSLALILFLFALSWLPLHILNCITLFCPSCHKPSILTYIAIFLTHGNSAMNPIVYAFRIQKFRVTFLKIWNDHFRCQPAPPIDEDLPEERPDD
# [3] = molecular target: T2, Adenosine receptor A2b (Homo sapiens, UniProt P29275); experiment: as §1
# T2 sequence (P29275 whole entry): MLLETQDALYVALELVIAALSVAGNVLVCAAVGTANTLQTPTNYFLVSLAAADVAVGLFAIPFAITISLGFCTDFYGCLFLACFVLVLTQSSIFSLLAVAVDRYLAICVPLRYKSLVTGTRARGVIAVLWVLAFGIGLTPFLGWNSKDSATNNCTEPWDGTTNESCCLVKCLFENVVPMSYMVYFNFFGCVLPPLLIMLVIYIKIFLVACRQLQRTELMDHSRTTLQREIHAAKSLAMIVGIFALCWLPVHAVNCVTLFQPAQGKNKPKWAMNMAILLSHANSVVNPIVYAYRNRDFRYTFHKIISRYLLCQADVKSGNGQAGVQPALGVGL
# [4] = molecular target: Adenosine receptor A2a (Mus musculus, UniProt Q60613); experiment: as §1
# Chain of Adenosine receptor A2a (Mus musculus, UniProt Q60613) (Q60613 whole entry): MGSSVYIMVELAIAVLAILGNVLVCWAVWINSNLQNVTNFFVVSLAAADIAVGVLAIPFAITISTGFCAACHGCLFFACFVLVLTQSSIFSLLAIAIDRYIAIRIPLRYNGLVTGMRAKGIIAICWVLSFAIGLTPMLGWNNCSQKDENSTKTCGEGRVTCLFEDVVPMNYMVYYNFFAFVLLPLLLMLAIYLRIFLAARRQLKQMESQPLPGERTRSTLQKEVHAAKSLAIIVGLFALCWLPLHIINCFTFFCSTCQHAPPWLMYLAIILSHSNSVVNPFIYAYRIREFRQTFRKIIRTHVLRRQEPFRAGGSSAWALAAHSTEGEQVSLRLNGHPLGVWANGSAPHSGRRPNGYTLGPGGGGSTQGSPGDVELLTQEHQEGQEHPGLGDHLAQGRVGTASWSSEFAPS
# Chain of Adenosine receptor A2a (Homo sapiens, UniProt P29274) (P29274 whole entry): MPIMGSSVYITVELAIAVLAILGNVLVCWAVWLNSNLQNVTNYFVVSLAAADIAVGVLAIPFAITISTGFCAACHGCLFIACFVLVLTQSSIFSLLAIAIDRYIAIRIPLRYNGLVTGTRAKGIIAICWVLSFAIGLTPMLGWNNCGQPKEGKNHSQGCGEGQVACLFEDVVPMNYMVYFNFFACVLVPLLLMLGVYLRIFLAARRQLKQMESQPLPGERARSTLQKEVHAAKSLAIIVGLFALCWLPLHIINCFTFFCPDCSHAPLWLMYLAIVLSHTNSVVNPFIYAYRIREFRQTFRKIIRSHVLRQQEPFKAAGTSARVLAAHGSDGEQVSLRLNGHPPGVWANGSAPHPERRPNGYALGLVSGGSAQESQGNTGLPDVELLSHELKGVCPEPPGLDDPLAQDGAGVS
Compound,IC50 [1],IC50 [2],IC50 [3],IC50 [4]
Nc1nc(-n2ccnn2)c(-c2ccc3nccn3c2)c2nc(Cc3ncccc3F)nn12,103 nM,779 nM,1110 nM,170 nM
Cc1cnc2ccc(-c3c(N4CCOCC4)nc(N)n4nc(Cc5c(F)cccc5F)nc34)cn12,0.2 nM,,44.5 nM,2.9 nM
